# Data taken from patent US9126999B2, “Tetrahydropyrazolopyrimidine compounds” (EISAI R&D MANAGEMENT CO., LTD., priority 2012, dated 2015).
# “Also recorded” adds a separate entry of the source.
# Assays:
# DBA/1 mice = experiment: Pristane: DBA/1 strain lupus disease model; assay type: in vivo, mouse
# Description: Figure Legend: Female DBA/1 mice at 10-11 weeks of age were given an intraperitoneal injection of 0.5 ml pristane or PBS. Once-a-day oral dosing with Vehicle (Veh; 0.5% methyl-cellulose) or 300 mg/kg ER-892887 was begun 3.5 months after pristane injection for a total of 3 months treatment. (A) Mice were euthanized after 3 months of compound treatment, and anti-dsDNA and anti-RiboP titers were measured in blood plasma samples by ELISA (statistical significance determined by Mann-Whitney test). (B) Arthritis development was assessed monthly by visual scoring. (C) The expression of IFN-regulated genes in whole blood was measured by a qPCR panel after 3 months of treatment, and an IFN gene signature score was calculated (see Pharmacology Materials and Methods section for details regarding IFN score calculation).
# Figure Legend: Female DBA/1 mice at 11-12 weeks of age were given an intraperitoneal injection of 0.5 ml of pristane or PBS. Once-a-day oral dosing with Vehicle (Veh; 0.5% methyl-cellulose) or 33, 100, or 300 mg/kg ER-892887 was begun 2 months after pristane injection for a total of 3 months treatment. Mice were euthanized after 3 months of compound treatment, and anti-dsDNA (A), -RiboP (B), -Sm/nRNP (C), and -Histone (D) titers were measured in blood plasma samples by ELISA (statistical significance determined by Mann-Whitney test). (E) Summary of mortality observed in the study during 3 months of compound treatment. (F) The expression of IFN-regulated genes in whole blood was measured by a qPCR panel at the last time point for Vehicle and 300 mg/kg ER-892887 treated mice, and an IFN gene signature score was calculated (see Pharmacology Materials and Methods section for details regarding IFN score calculation).
# Figure Legend: Female DBA/1 mice at 11 weeks of age were given an intraperitoneal injection of 0.5 ml pristane or PBS. Once-a-day oral dosing with Vehicle (Veh; 0.5% methyl-cellulose) or 300 mg/kg ER-892887, 100 mg/kg hydroxychloroquine, 1 mg/kg prednisolone or 100 mg/kg mycophenolate was begun 2 months after pristane injection and continued for 3 months of treatment. (A) At the end of the 3 month treatment arthritis development was assessed by visual scoring of swelling and inflammation. (B) Mice were euthanized after 3 months of compound treatment, and anti-dsDNA, anti-histone, anti-Sm/RNP and anti-RiboP titers were measured in blood plasma samples by ELISA (statistical significance determined by Mann-Whitney test). ELISA values falling above or below the range of the standard curve were assigned a value equal to the highest or lowest valid measurement, as appropriate. (C) The expression of IFN-regulated genes in whole blood was measured by a qPCR panel after 3 months of treatment. […] (D) IFN scores of genes regulated by pristane in this experiment are shown.
# FIG. 14 presents the effect of compound ER-892887 on arthritis and autoantibodies in the Pristane: DBA/1 strain lupus disease model. Figure Legend: Female DBA/1 mice at 10 weeks of age were given an intraperitoneal injection of 0.5 ml pristane or PBS. At 22 weeks of age, mice were randomized into groups with equivalent median anti-dsDNA titers and treated with Vehicle (Veh; 0.5% methyl-cellulose) alone or 300 mg/kg ER-892887 once-a-day orally (QD PO). Arthritis symptoms (swelling and inflammation) were recorded monthly by blinded observers. All mice were sacrificed at 34 weeks of age (12 weeks of treatment) and blood plasma autoantibody titers were determined by ELISA. Prior to termination paws were x-rayed and scored for bone damage and erosions by two blinded analysts. (A) Top—Arthritis scores were calculated monthly in vehicle and compound dosed-groups. (A) Bottom—X-ray scores were calculated after three months of treatment. (B) Autoantibody titers were measured in terminal blood plasma samples by ELISA (statistical significance determined by Mann-Whitney test). […]
# Human TLR4 = Human TLR4 (Homo sapiens, UniProt O00206); experiment: HEK-293 NF-kappaB luciferase reporter assay, LPS stimulus; assay type: cell-based; design: engineered to stably and individually express human TLR4, TLR7 or TLR9 full-length ORF cDNAs; expressed in transfected cells; host or cells: HEK-293 (ATCC) with ELAM-1 NF-kappaB luciferase reporter; conditions: ligand LPS, analyte NFkB-luciferase
# Excerpt: In vitro pharmacology: HEK-293 cells (ATCC) were engineered to stably express a NF-kappaB transcription factor inducible E-selectin (ELAM-1) luciferase reporter derived from the plasmid pGL3 (Promega) containing base pairs −2241 bp to −254 bp from the promoter of the human E-selectin gene (Accession No. NM_000450). These cells were then subsequently engineered to stably and individually express human TLR4, TLR7 or TLR9 full-length ORF cDNAs. Human TLR4 cDNA (Accession No. NM_138554) was cloned into pcDNA 3.0 expression vector (Invitrogen). TLR4 transfected cells were also engineered to express human MD-2 co-receptor [MD-2 cDNA (Accession No. NM_015364) was cloned into the pEF-BOS vector] and were supplemented with 10 nM soluble CD14 (R&D Systems) in the media to optimize LPS responsiveness. Human TLR9 cDNA (Accession No. NM_017442) was cloned into the pBluescript II KS vector (Agilent). Human TLR7 cDNA (Accession No. NM_016562) was obtained from OriGene. HEK-293 cells stably expressing human TLR8 (Accession No. NM_138636) or mouse TLR7 (Accession No. NM_133211) were purchased from InvivoGen and were then stably transfected with pNiFty2(NF-kappaB)-luciferase reporter plasmid (InvivoGen). […]
# Chain of Human TLR4 (O00206 24-839): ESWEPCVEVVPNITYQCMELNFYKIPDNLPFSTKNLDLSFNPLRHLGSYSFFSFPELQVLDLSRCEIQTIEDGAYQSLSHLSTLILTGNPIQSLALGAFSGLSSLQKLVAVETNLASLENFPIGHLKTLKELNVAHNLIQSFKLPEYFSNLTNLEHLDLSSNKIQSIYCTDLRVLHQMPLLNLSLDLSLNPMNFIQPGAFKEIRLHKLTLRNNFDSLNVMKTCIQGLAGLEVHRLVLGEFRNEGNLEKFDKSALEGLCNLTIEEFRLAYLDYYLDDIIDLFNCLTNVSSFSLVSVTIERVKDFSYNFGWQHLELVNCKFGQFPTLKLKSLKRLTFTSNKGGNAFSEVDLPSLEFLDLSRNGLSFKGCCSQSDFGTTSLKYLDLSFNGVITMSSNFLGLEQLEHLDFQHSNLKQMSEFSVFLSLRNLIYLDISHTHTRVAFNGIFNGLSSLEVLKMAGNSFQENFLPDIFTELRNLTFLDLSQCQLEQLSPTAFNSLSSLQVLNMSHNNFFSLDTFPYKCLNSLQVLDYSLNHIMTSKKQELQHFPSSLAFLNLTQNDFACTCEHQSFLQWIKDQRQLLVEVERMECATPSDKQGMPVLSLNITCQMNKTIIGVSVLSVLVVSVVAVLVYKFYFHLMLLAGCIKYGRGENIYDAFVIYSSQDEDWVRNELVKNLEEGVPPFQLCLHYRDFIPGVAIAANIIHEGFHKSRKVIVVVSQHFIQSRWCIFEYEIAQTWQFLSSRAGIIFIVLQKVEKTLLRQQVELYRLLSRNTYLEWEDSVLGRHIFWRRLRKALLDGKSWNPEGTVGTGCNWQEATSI
# Chain of Human TLR4 (Q9Y6Y9 19-160 partner): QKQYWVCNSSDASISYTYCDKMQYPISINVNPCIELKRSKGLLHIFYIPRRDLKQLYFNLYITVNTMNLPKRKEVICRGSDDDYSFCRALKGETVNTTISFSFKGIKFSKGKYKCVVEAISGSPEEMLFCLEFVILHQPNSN
compound,measurement,setting,value
"COc1ccc([C@@H]2C[C@H](C(F)(F)F)n3nc(-c4ccc(C(=O)N5CCNCC5)cc4)cc3N2)cc1OC [ER-892887, (4-((5S,7R)-5-(3,4-dimethoxyphenyl)-7-(trifluoromethyl)-4,5,6,7-tetrahydropyrazolo[1,5-a]pyrimidin-2-yl)phenyl)(piperazin-1-yl)methanone]",IFN gene signature score,DBA/1 mice,reduction
same,RNA-related reactivity such as anti-RiboP titers,DBA/1 mice,particularly robust impact
same,arthritis severity,DBA/1 mice,reduced arthritis severity
same,"interferon gene signature score, comparison with three commonly used lupus treatments",DBA/1 mice,suppressed the interferon gene signature score significantly
same,various auto-antibodies,DBA/1 mice,suppressed
same,suppression of autoantibodies compared with hydroxychloroquine or prednisolone,DBA/1 mice; at the doses tested,better
same,whole blood interferon-driven gene expression,DBA/1 mice; qPCR panel,reduction; also recorded: suppressed
same,IC50,Human TLR4,> 10 µM
